The results in this text go back to PubChem BioAssay AID1259407 (Chemical Carcinogenesis Research Information System (CCRIS), 2018).

This series concerns CCRIS mutagenicity, Ames/micronucleus/aberration tests. Description: CCRIS mutagenicity studies.
Where [1] appears, read: Test System: AMES SALMONELLA TYPHIMURIUM, Strain/Indicator: TA98, Metabolic Activation: NONE, Method: STANDARD PLATE.
Where [2] appears, read: Test System: AMES SALMONELLA TYPHIMURIUM, Strain/Indicator: TA100, Metabolic Activation: NONE, Method: STANDARD PLATE.
[3] abbreviates: Test System: AMES SALMONELLA TYPHIMURIUM, Strain/Indicator: TA98, Metabolic Activation: RAT, LIVER, S-9, AROCLOR 1254, Method: STANDARD PLATE.
Where [4] appears, read: Test System: AMES SALMONELLA TYPHIMURIUM, Strain/Indicator: TA100, Metabolic Activation: RAT, LIVER, S-9, AROCLOR 1254, Method: STANDARD PLATE.
The mark [5] stands for this setting: Test System: AMES SALMONELLA TYPHIMURIUM, Strain/Indicator: TA1535, Metabolic Activation: HAMSTER, LIVER, S-9, AROCLOR 1254, Method: STANDARD PLATE.
[6] abbreviates: Test System: AMES SALMONELLA TYPHIMURIUM, Strain/Indicator: TA1535, Metabolic Activation: NONE, Method: STANDARD PLATE.
[7] abbreviates: Test System: AMES SALMONELLA TYPHIMURIUM, Strain/Indicator: TA1538, Metabolic Activation: HAMSTER, LIVER, S-9, AROCLOR 1254, Method: STANDARD PLATE.
Setting [8] is: Test System: MOUSE LYMPHOMA, Strain/Indicator: L5178Y (TK+/TK-), Metabolic Activation: NONE, Method: SUSPENSION/PLATE.
The mark [9] stands for this setting: Test System: MOUSE LYMPHOMA, Strain/Indicator: L5178Y (TK+/TK-), Metabolic Activation: RAT, LIVER, S-9, AROCLOR 1254, Method: SUSPENSION/PLATE.
Where [10] appears, read: Test System: AMES SALMONELLA TYPHIMURIUM, Strain/Indicator: TA98, Metabolic Activation: NONE, Method: PREINCUBATION
Where [11] appears, read: Test System: AMES SALMONELLA TYPHIMURIUM, Strain/Indicator: TA100, Metabolic Activation: NONE, Method: PREINCUBATION

Activity calls are given as the source filed them. No rule for the calls is given here.

For the compound `Oc1ccc2ccc3[nH]c4ccc5ccccc5c4c3c2c1`, the mutagenic call under setting [1] was “active; positive”; the mutagenic call (Test System: AMES SALMONELLA TYPHIMURIUM, Strain/Indicator: TA98, Metabolic Activation: RAT, LIVER, S-9, 3-METHYLCHOLANTHRENE, Method: STANDARD PLATE) was “active; positive”; the mutagenic call under setting [2] is “active; positive”; the mutagenic call (Test System: AMES SALMONELLA TYPHIMURIUM, Strain/Indicator: TA100, Metabolic Activation: RAT, LIVER, S-9, 3-METHYLCHOLANTHRENE, Method: STANDARD PLATE) was “active; positive”; the mutagenic call (Test System: AMES SALMONELLA TYPHIMURIUM, Strain/Indicator: TM677, Metabolic Activation: NONE, Method: PREINCUBATION) is “inactive; negative”; the mutagenic call (Test System: AMES SALMONELLA TYPHIMURIUM, Strain/Indicator: TM677, Metabolic Activation: RAT, LIVER, S-9, 3-METHYLCHOLANTHRENE (1%), Method: PREINCUBATION) was “active; positive”. Also, the mutagenic call runs as follows: (Test System: AMES SALMONELLA TYPHIMURIUM, Strain/Indicator: TM677, Metabolic Activation: RAT, LIVER, S-9, 3-METHYLCHOLANTHRENE (10%), Method: PREINCUBATION) “active; positive”; (Test System: AMES SALMONELLA TYPHIMURIUM, Strain/Indicator: TM677, Metabolic Activation: RAT, LIVER, S-9, AROCLOR 1254 (10%), Method: PREINCUBATION) “active; positive”.

As for `c1ccc([C@H]2CO2)cc1`, the mutagenic call was “active; positive” (Test System: AMES SALMONELLA TYPHIMURIUM, Strain/Indicator: TA100, Metabolic Activation: NONE) and “active; positive” under setting [2].

Regarding `CC(=O)c1ccccn1`, the mutagenic call reads like this: (Test System: AMES SALMONELLA TYPHIMURIUM, Strain/Indicator: TA98, Metabolic Activation: HAMSTER, LIVER, S-9, AROCLOR 1254, Method: STANDARD PLATE) “inactive; negative”; under setting [1], “inactive; negative”; under setting [3], “inactive; negative”; (Test System: AMES SALMONELLA TYPHIMURIUM, Strain/Indicator: TA100, Metabolic Activation: HAMSTER, LIVER, S-9, AROCLOR 1254, Method: STANDARD PLATE) “inactive; negative”; under setting [2], “inactive; negative”; under setting [4], “inactive; negative”. The mutagenic call reads like this: under setting [5], “inactive; negative”; under setting [6], “inactive; negative”; (Test System: AMES SALMONELLA TYPHIMURIUM, Strain/Indicator: TA1535, Metabolic Activation: RAT, LIVER, S-9, AROCLOR 1254, Method: STANDARD PLATE) “inactive; negative”; (Test System: AMES SALMONELLA TYPHIMURIUM, Strain/Indicator: TA1537, Metabolic Activation: HAMSTER, LIVER, S-9, AROCLOR 1254, Method: STANDARD PLATE) “inactive; negative”; (Test System: AMES SALMONELLA TYPHIMURIUM, Strain/Indicator: TA1537, Metabolic Activation: NONE, Method: STANDARD PLATE) “inactive; negative”; (Test System: AMES SALMONELLA TYPHIMURIUM, Strain/Indicator: TA1537, Metabolic Activation: RAT, LIVER, S-9, AROCLOR 1254, Method: STANDARD PLATE) “inactive; negative”. In addition, the mutagenic call under setting [7] was “inactive; negative”; the mutagenic call (Test System: AMES SALMONELLA TYPHIMURIUM, Strain/Indicator: TA1538, Metabolic Activation: NONE, Method: STANDARD PLATE) was “inactive; negative”; the mutagenic call (Test System: AMES SALMONELLA TYPHIMURIUM, Strain/Indicator: TA1538, Metabolic Activation: RAT, LIVER, S-9, AROCLOR 1254, Method: STANDARD PLATE) was “inactive; negative”; the mutagenic call under setting [8] was “active; positive. reevaluation of results: positive”; the mutagenic call under setting [9] is “active; positive. reevaluation of results: inconclusive”.

Regarding `Cc1cc2nc3c(ccc4ccccc43)c(C)c2cc1C`, the mutagenic call is “active; positive” (Test System: AMES SALMONELLA TYPHIMURIUM, Strain/Indicator: TA97A, Metabolic Activation: NONE, Method: PREINCUBATION); “inactive; negative” under setting [10]; “inactive; negative” under setting [11]; “active; positive” (Test System: AMES SALMONELLA TYPHIMURIUM, Strain/Indicator: TA102, Metabolic Activation: NONE, Method: PREINCUBATION).

Regarding `ClC(Cl)=C(Cl)c1cccc(Cl)c1Cl`, the mutagenic call is, setting by setting: under setting [1], “inactive; negative”; under setting [3], “inactive; negative”; under setting [2], “inactive; negative”; under setting [4], “inactive; negative”.

`O=C(Nc1cccc(Br)c1)c1csc([N+](=O)[O-])c1`: the mutagenic call was “active; positive” under setting [1] and “active; positive” under setting [2].

Consider `Cc1cc(N)sn1`, for which the mutagenic call is “active; positive” (Test System: AMES SALMONELLA TYPHIMURIUM, Strain/Indicator: TA102, Metabolic Activation: RAT, LIVER, S-9, AROCLOR 1254, HAMSTER, LIVER, S-9, AROCLOR 1254, Method: PREINCUBATION); “active; positive” (Test System: AMES SALMONELLA TYPHIMURIUM, Strain/Indicator: TA1538, Metabolic Activation: HAMSTER, LIVER, S-9, AROCLOR 1254 (5, 10%), Method: STANDARD PLATE); “active; positive” under setting [7]; “active; positive. reevaluation of results: inconclusive” under setting [8]; “active; positive. reevaluation of results: equivocal” under setting [9].

For `CC(=O)N(O)c1ccc(Br)cc1`, the mutagenic call was “inactive; negative” under setting [1], “inactive; negative” under setting [3], “inactive; negative” under setting [2] and “inactive; negative” under setting [4].

Consider `COc1cccc(CN(C)N=O)c1`, for which the mutagenic call was “active; positive” under setting [5] and “inactive; negative” under setting [6].

Turning to `O=[N+]([O-])C1=Cc2cccc3cccc1c23`, the mutagenic call under setting [1] was “active; positive”.

In the case of `OCCCCCCO`, the mutagenic call was “inactive; negative” under setting [10]; “inactive; negative” (Test System: AMES SALMONELLA TYPHIMURIUM, Strain/Indicator: TA98, Metabolic Activation: RAT LIVER S-9, PHENOBARBITAL AND BETA-NAPHTHOFLAVONE, Method: PREINCUBATION); “inactive; negative” under setting [11]; “inactive; negative” (Test System: AMES SALMONELLA TYPHIMURIUM, Strain/Indicator: TA100, Metabolic Activation: RAT LIVER S-9, PHENOBARBITAL AND BETA-NAPHTHOFLAVONE, Method: PREINCUBATION); “inactive; negative” (Test System: AMES SALMONELLA TYPHIMURIUM, Strain/Indicator: TA1535, Metabolic Activation: NONE, Method: PREINCUBATION); “inactive; negative” (Test System: AMES SALMONELLA TYPHIMURIUM, Strain/Indicator: TA1535, Metabolic Activation: RAT LIVER S-9, PHENOBARBITAL AND BETA-NAPHTHOFLAVONE, Method: PREINCUBATION). Besides, the mutagenic call is, setting by setting: (Test System: AMES SALMONELLA TYPHIMURIUM, Strain/Indicator: TA1537, Metabolic Activation: NONE, Method: PREINCUBATION) “inactive; negative”; (Test System: AMES SALMONELLA TYPHIMURIUM, Strain/Indicator: TA1537, Metabolic Activation: RAT LIVER S-9, PHENOBARBITAL AND BETA-NAPHTHOFLAVONE, Method: PREINCUBATION) “inactive; negative”; (Test System: E.COLI, Strain/Indicator: WP2UVRA/PKM101, Metabolic Activation: NONE, Method: PREINCUBATION) “inactive; negative”; (Test System: E.COLI, Strain/Indicator: WP2UVRA/PKM101, Metabolic Activation: RAT LIVER S-9, PHENOBARBITAL AND BETA-NAPHTHOFLAVONE, Method: PREINCUBATION) “inactive; negative”.

In the case of `Oc1cc2c3ccccc3ccc2c2ccccc12`, the mutagenic call was “inactive; negative” under setting [1], “inactive; negative” under setting [3] and “inactive; negative” under setting [2].
